# Source: patent US9809532B2, “Uses of histone acetyltransferase activators” (THE TRUSTEES OF COLUMBIA UNIVERSITY IN THE CITY OF NEW YORK, priority 2011, dated 2017)
# How the values were obtained:
# [1] = tested on: mouse model of Alzheimer's disease; assay: Memory deficits in a mouse model of Alzheimer's disease; type: in vivo
# [2] = tested on: HDAC 1, 3, 5, 6, 7, 8, 10, 11, and sirt1-2; assay: HDAC activity assays, summary over the panel; type: biochemical; conditions: HDAC 1, 3, 5, 6, 7, 8, 10, 11, sirt1-2
# Experimental: Assay Conditions. A series of dilution of the test compounds were prepared with 10% DMSO in assay buffer and 5 μl of the dilution was added to a 50 μl reaction so that the final concentration of DMSO is 1% in all of reactions. All of the enzymatic reactions were conducted in duplicate at 37° C. for 30 minutes except of HDAC11 at room temperature for 3 hours. The 50 μl reaction mixture contains HDAC assay buffer, 5 μg BSA, an HDAC substrate, an HDAC enzyme and a test compound. After enzymatic reactions, 50 μl of HDAC Developer was added to each well and the plate was incubated at room temperature for an additional 20 minutes. Fluorescence intensity was measured at an excitation of 360 nm and an emission of 460 nm using a Tecan Infinite M1000 microplate reader.
# Data Analysis. HDAC activity assays were performed in duplicates at each concentration. The fluorescent intensity data were analyzed using the computer software, Graphpad Prism. In the absence of the compound, the fluorescent intensity (Ft) in each data set was defined as 100% activity. In the absence of HDAC, the fluorescent intensity (Fb) in each data set was defined as 0% activity. […] The percent activity in the presence of each compound was calculated according to the following equation: % activity=(F−Fb)/(Ft−Fb), where F=the fluorescent intensity in the presence of the compound. […]
smiles,measurement,setting,value
CCOc1cccc(OCCN(C)C)c1C(=O)Nc1ccc(Cl)c(C(F)(F)F)c1 [Compound 1],memory deficits,[1],ameliorate memory deficits
same,HDAC inhibition (in words),[2],does not inhibit HDACs
same,HDAC inhibition (in words),[2]; listed as compound 1,did not interfere with p300 and HDAC activity
